Consider one molecule from ChEMBL document CHEMBL3864126, “Identification of SENP1 inhibitors through in silico screening and rational drug design” (Eur J Med Chem, 2016).

The assay concerns the target T1, Sentrin-specific protease 1 (Homo sapiens, UniProt Q9P0U3).
T1 sequence (Q9P0U3 whole entry): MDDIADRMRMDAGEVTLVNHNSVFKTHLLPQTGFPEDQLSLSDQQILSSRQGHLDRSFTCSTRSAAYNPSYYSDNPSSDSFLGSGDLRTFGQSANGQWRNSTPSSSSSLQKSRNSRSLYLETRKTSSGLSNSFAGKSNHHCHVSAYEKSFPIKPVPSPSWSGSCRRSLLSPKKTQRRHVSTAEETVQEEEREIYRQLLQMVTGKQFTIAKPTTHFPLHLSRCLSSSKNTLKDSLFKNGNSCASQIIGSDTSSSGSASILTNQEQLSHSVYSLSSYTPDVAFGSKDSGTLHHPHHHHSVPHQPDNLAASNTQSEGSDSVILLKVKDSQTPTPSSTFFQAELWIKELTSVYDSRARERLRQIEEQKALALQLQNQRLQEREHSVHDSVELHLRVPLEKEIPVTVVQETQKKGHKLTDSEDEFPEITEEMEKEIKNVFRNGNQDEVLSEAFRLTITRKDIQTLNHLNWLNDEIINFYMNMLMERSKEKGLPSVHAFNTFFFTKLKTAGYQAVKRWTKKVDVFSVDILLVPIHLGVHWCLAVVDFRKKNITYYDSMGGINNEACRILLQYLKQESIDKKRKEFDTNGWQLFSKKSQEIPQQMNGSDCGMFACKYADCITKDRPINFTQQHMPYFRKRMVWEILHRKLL
The assay is described as follows: Inhibition of SENP1 catalytic domain (419 to 644 residues) (unknown origin) expressed in Escherichia coli BL21 (DE3) assessed as reduction in deSUMOylation preincubated for 10 mins followed by addition of RanGAP-SUMO as substrate measured after 25 mins by coomassie staining-based SDS-PAGE analysis.

In general, IC50 refers to the midpoint of a concentration-inhibition curve. As for `O=C(N/N=C/C1CCCCC1)c1cc(Cl)ccc1O`, the IC50 amounted to 14 µM.
